According to PMC8507260, “A2E-induced inflammation and angiogenesis in RPE cells in vitro are modulated by PPAR-α, -β/δ, -γ, and RXR antagonists and by norbixin” (Aging (Albany NY), 2021):

Legend:
[1] = system: PPAR-α; assay: Transactivation of over-expressed PPAR-α, luciferase reporter in porcine RPE cells; format: cell-based, pig; settings: for transactivation of over-expressed PPAR-α by the compound alone: vs DMSO control, A2E 20 μM, NBX increasing concentrations
Procedure: First, we evaluated the binding profile of A2E to all three isoforms of PPAR. […] Then the effects of A2E on the endogenous PPAR transactivation in porcine RPE cells were investigated by means of a luciferase assay. […] The level of transactivation of PPAR-α, -β/δ, or -γ isoforms by A2E was determined by co-transfection of porcine RPE cells with a plasmid expressing each of the full-length PPAR isoforms and a plasmid expressing luciferase under the control of the PPAR response element. […]. All usual chemicals, primers, and HX531 were from Sigma (St. Louis, MO, USA). Reagents for cell culture, transfection and quantitative RT-PCR were from Thermo Fisher Scientific (Waltham, MA, USA). RNA extraction NucleoSpin® RNA kit was from Macherey Nagel (Düren, Germany). ECL prime and PVDF membrane were from Amersham GE Healthcare (Buckinghamshire, UK). Primary antibodies against the following proteins were used: GAPDH (Santa Cruz Biotechnology, Inc, Dallas, TX, USA); pAKT, AKT, pERK and ERK (Cell Signaling, Danvers, MA, USA). Secondary antibodies were from Jackson ImmunoResearch (Cambridgeshire, UK). […] Cignal Pathway Reporter Assay Kits were from QIAGEN (Frederick, MD, USA). The Dual-Luciferase Reporter Assay System was purchased from Promega (Madison, WI, USA). pcDNA 3.1 (+)-PPARα and pcDNA 3.1 (+)-PPARβ/δ (pig sequence) were purchased from Genscript (Piscataway, NJ, USA). pCMV6-XL4-PPARγ (human sequence) was purchased from Origene (Rockville, MD, USA).
After one week in culture, cells were trypsinized and transferred to a 96-well plate at a density of 6 × 10^4 cells/cm^2 in DMEM2%FCS. The next day, cells were transfected using the Cignal Reporter Assay Kits for PPAR, RXR, AP-1 and NF-κB, according to the manufacturer’s specifications. To measure the specific activation of PPAR isoforms, cells were also co-transfected with PPAR-α, PPAR-β/δ or PPAR-γ expression vectors. Transfection was performed with Lipofectamine and Plus Reagent in serum-free medium. 3 h after the transfection, the medium was replaced and treatments with the molecules to assay were performed. Luciferase activity was measured the next day using the Dual-Luciferase Reporter Assay System. The measurements were performed with a luminometer (Infinite M1000 from Tecan, Mannedorf, Switzerland). Firefly: Renilla activity ratios were calculated for each condition and ratios from transcription factor-responsive reporter transfections were divided by ratios from negative control transfections to obtain relative luciferase unit, as described by the manufacturer. At least 3 independent transfections were performed in triplicate for each condition.

[2] = target: T1, PPAR-γ (Homo sapiens, UniProt P37231); assay: Competition binding to PPAR-γ against [3H]rosiglitazone (Eurofins Cerep); design: Eurofins Cerep (contract laboratory that ran the assay); settings: competition with [3H]rosiglitazone
T1 sequence (P37231 1-505): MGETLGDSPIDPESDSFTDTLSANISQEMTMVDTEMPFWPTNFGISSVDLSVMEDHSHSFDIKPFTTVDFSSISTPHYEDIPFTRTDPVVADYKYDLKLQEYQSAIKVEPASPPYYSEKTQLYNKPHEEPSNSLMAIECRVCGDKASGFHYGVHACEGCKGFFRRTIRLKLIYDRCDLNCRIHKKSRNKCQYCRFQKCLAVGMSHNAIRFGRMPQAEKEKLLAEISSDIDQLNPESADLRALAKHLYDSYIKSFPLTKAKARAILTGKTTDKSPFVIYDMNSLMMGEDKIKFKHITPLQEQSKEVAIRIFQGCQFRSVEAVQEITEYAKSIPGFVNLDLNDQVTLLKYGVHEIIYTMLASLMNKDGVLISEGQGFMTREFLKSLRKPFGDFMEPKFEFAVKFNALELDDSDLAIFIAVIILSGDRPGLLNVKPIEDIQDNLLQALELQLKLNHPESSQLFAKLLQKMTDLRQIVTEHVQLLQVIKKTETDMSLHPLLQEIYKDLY
Excerpt: The binding and activity of norbixin on PPARs remains controversial, thus, firstly, we performed competition experiments in vitro between norbixin and [^3H] GW7647, an agonist of PPAR-α, and [^3H] rosiglitazone, an agonist of PPAR-γ. […] Secondly, we tested whether norbixin could induce the transactivation of PPAR-α, -β/δ or -γ in the context of RPE cells in vitro by co-transfecting porcine RPE cells with a plasmid expressing each of the full-length PPAR isoforms and a plasmid expressing luciferase under the control of the PPAR response element. […] Then, we wanted to determine if norbixin could modulate the transactivation of PPAR isoforms induced by specific agonists.
Binding studies of A2E and norbixin to RXR-α and PPAR-α and γ were performed in vitro by an external laboratory (Eurofins Cerep, Celle L’Evescault, France) through competition experiments between A2E or norbixin and [^3H]9-cis-retinoic acid as the natural ligand of RXR-α, [^3H]GW7647 an agonist of PPAR-α and [^3H]Rosiglitazone an agonist of PPAR-γ.

Row | Compound | effect on over-expressed PPAR-α transactivation induced by A2E ([1]; A2E 20 μM + NBX 20 μM) | inhibition of PPAR-α transactivation induced by GW9578 ([1]; GW9578 at 10 nM, NBX 20 μM) | transactivation of over-expressed PPAR-α by the compound alone [1] | IC50 [2] [µM] | Kd [2] [µM]
1 | CC(/C=C/C=C(C)/C=C/C(=O)O)=C\C=C\C=C(C)\C=C\C=C(C)\C=C\C(=O)O (stereo in doubt) [norbixin, 9’-cis-norbixin] | fully abolished | did not inhibit significantly | did not demonstrate any transactivation activity | 1.9 | 1
2 | CC(C=CC1=C(C)CCCC1(C)C)=CC=CC(C)=Cc1cc(C=CC=C(C)C=CC2=C(C)CCCC2(C)C)cc[n+]1CCO [A2E, N-retinylidene-N-retinylethanolamine] | – | – | induced the transactivation | 25.5 | 14
